Data set [1] is described as follows: Urinary inositol isomers excretion by glucose tolerance status (UHPLC-MSMS), withdrawn women from study 2. In kind it is in vivo, human. The note with it: endogenous, spot urine. How it is done:
(§1) Only withdrawn women from this study 2 were included in this sub-study. Women were from UK (N=46), NZ (N=89), SG (N=117). All the data (anthropometric and biochemical parameters) were collected and measured. Plasma and urine inositol isomers were measured using a new validated UHPLC-MSMS method. Study 2 was approved by different Institutional Review Boards and the study design published (Godfrey K M et al, Trials. 2017 Mar. 20; 18(1):131.). Subjects were classified as normoglycemic (NGT), impaired glucose tolerance (IGT), and type 2 diabetic mellitus (T2DM) based upon the results of fasting glucose and the oral glucose tolerance test (OGTT). Subjects with 2-hours glucose were levels <7.8 mmol/L were considered as normal glucose tolerant (NGT), while those with 2-hour glucose between 7.8-11.1 mmol/L were deemed as having impaired glucose tolerance (IGT). Individuals with fasting plasma glucose (IFG) level 5.6 mmol/L) were classified as having impaired fasting glucose. Both IFG and IGT subjects were grouped together. Subjects with 2-hours glucose >11.1 mmol/L were considered as having type 2 diabetic mellitus (T2DM). NGT group was further divided into 2 sub-groups named NGT with a “favorable” metabolic risk profile (abbreviated NGT_fav) and NGT with an “unfavorable” metabolic risk profile (abbreviated NGT_Unfav) to take into account the hyperinsulinemia affecting subjects in the NGT group. Inclusion criteria for NGT subjects with a favorable risk profile (NGT_fav) were the following ones: BMI<25 for Caucasian and <23 for Asian subjects; waist <80 cm; waist/hip ratio […]; HOMA2-IR<1.21. IGT/IFG and T2DM subjects were also grouped together into a dysglycemic group. In total, […] were reported: NGT_all; NGT_fav; NGT_unfav; IGT/IFG and; T2DM.
(§2) Blood samples were collected into EDTA-containing tubes and spot urine samples were collected and frozen at −80° C. until analysis. For inositol isomers determination, analysis was performed on an Accela UHPLC (Thermo Fisher Scientific Inc., Waltham, Mass., USA) coupled to a TSQ Vantage triple quadrupole (Thermo Fisher Scientific Inc., Waltham, Mass., USA) equipped with a heated electrospray ionization (HESI) source in negative mode. Chromatographic separation was achieved using gradient elution on an UHPLC Acquity BEH Amide (1.7 μm, 2.1 mm×150 mm) column and guard column (Vanguard BEH Amide 1.7 μm, 2.1 mm×10 mm; Waters Corporation, Milford, Mass., USA) at 30° C. at a flow rate of 400 μL/min. Mobile phase consisted of 90% acetonitrile-NH4OH 0.04% (eluent A) and 50% acetonitrile-NH4OH 0.04% (eluent B). Column temperature was kept at 30° C. The injection volumes were 3 μL and 5 μL for urine and plasma respectively. Plasma samples were thawed and briefly vortexed before transferring 100 μL of the sample into a 1.5 mL microtube. 50 μL of [2H6]-myo-inositol, then 500 μL of ACN containing 1% of formic acid were added for protein precipitation. The tubes were vortexed for 1 min and centrifuged at 10,000×g for 3 min. Supernatants were transferred into an SPE Ostro 96 well plate for phospholipid removal. Positive pressure (about 8 psi) was applied for elution and the filtrates were then evaporate to dryness in a vacuum centrifuge (45° C., 5 mbar, 6 h). Dry residues were dissolved in 400 μL of water and transferred into a 0.45 μm centrifugal filter containing 175 mg of mixed bed ion exchange resin Amberlite MB-3. Tubes were spun at 3000×g for 2 min then the filtrates were evaporated to dryness in vacuum centrifuge at 45° C., 5 mbar for 2 h. Finally, residues were reconstituted in vials with 80 μL of ACN/water (60/40) and injected for analysis.
Urine samples were thawed and briefly vortexed before transferring 150 μL of sample into a 1.5-mL microtube. 100 μL of [2H6]-myo-inositol was added and the mixture was transferred into a 0.45 μm centrifugal filter containing 175 mg of mixed bed ion exchange resin Amberlite MB-3. […]

Data set [2] can be described thus: Plasma inositol isomers levels by glucose tolerance status (UHPLC-MSMS), withdrawn women from study 2. In kind it is in vivo, human. The note with it: endogenous level; for Plasma inositol isomers levels, Mean: no administration; for plasma concentration in subjects with impaired glucose tolerance or type II diabetes in comparison to normal glucose tolerance / average plasma concentration in Asian subjects in comparison to Caucasian subjects: result in words; for average plasma concentration in Asian subjects in comparison to Caucasian subjects: subjects not having prediabetes or type II diabetes. Here is the method:
as §1, §2
Statistical analysis was performed using R software (version 3.2.3). Mean and standard deviation were calculated. The statistical model used as covariate the glucose tolerance status, the ethnicity, the menstrual cycle, the age of the subjects and the BMI. For some statistical analysis some raw data were log transformed in view of their distribution. […]

For `OC1C(O)C(O)C(O)C(O)C1O` (stereo not shown) [Chiro-inositol], the “Urinary inositol isomers excretion, Mean” value is reported as 0.20 μmol/mmol of creatinine in data set [1] (IGT/IFG group); 0.24 μmol/mmol of creatinine in data set [1] (NGT (all) group); 0.26 μmol/mmol of creatinine in data set [1] (NGT_Fav group); 0.22 μmol/mmol of creatinine in data set [1] (NGT_Unfav group); 0.42 μmol/mmol of creatinine in data set [1] (T2DM group). The “Plasma inositol isomers levels, Mean” value in data set [2] (IGT/IFG group, N=41 women) was 0.32 µmol/L; in data set [2] (NGT (all) group, N=182 women), 0.23 µmol/L; in data set [2] (NGT_Fav group, N=63 women) it was 0.26 µmol/L; in data set [2] (NGT_Unfav group, N=119 women), 0.22 µmol/L; in data set [2] (T2DM group, N=26 women), 0.22 µmol/L.

As for `O[C@H]1[C@H](O)[C@@H](O)[C@H](O)[C@@H](O)[C@H]1O` [Myo-inositol, cis-1,2,3,5-trans-4,6cyclohexanehexol], the “Urinary inositol isomers excretion, Mean” value in data set [1] (IGT/IFG group) is 6.35 μmol/mmol of creatinine; in data set [1] (NGT (all) group) it was 9.21 μmol/mmol of creatinine; in data set [1] (NGT_Fav group), 10.86 μmol/mmol of creatinine; in data set [1] (NGT_Unfav group), 8.33 μmol/mmol of creatinine; in data set [1] (T2DM group) it was 17.97 μmol/mmol of creatinine. The “Plasma inositol isomers levels, Mean” value in data set [2] (IGT/IFG group, N=41 women) stood at 23.23 µmol/L; in data set [2] (NGT (all) group, N=182 women), 25.91 µmol/L; in data set [2] (NGT_Fav group, N=63 women) it was 25.44 µmol/L; in data set [2] (NGT_Unfav group, N=119 women) it was 26.16 µmol/L; in data set [2] (T2DM group, N=26 women), 24.66 µmol/L. In data set [2], the “plasma concentration in subjects with impaired glucose tolerance or type II diabetes in comparison to normal glucose tolerance” value is given as “lower”. Also, the “average plasma concentration in Asian subjects in comparison to Caucasian subjects” value in data set [2] is recorded as “lower”.

For `O[C@H]1[C@H](O)[C@@H](O)[C@H](O)[C@@H](O)[C@@H]1O` [Scyllo-inositol, (1r,2r,3r,4r,5r,6r)-Cyclohexane-1,2,3,4,5,6-hexol], the “Urinary inositol isomers excretion, Mean” value in data set [1] (IGT/IFG group) is 3.31 μmol/mmol of creatinine; in data set [1] (NGT (all) group), 5.04 μmol/mmol of creatinine; in data set [1] (NGT_Fav group), 6.34 μmol/mmol of creatinine; in data set [1] (NGT_Unfav group), 4.34 μmol/mmol of creatinine; in data set [1] (T2DM group) it was 3.36 μmol/mmol of creatinine. Also, the “Plasma inositol isomers levels, Mean” value in data set [2] (IGT/IFG group, N=41 women) was determined as 0.46 µmol/L; in data set [2] (NGT (all) group, N=182 women), 0.67 µmol/L; in data set [2] (NGT_Fav group, N=63 women), 0.72 µmol/L; in data set [2] (NGT_Unfav group, N=119 women), 0.64 µmol/L; in data set [2] (T2DM group, N=26 women), 0.37 µmol/L. The “plasma concentration in subjects with impaired glucose tolerance or type II diabetes in comparison to normal glucose tolerance” value in data set [2] is given as “lower”. Further, the “average plasma concentration in Asian subjects in comparison to Caucasian subjects” value in data set [2] is reported as “lower”.

The values are drawn from US20210236528A1, “COMPOSITION COMPRISING ISOMERS OF INOSITOL AND ITS USE” (SOCIETE DES PRODUITS NESTLE S.A., priority 2019, published 2021).
